Laboratory results: paper PMC7747594, “Protease-activated receptor-2 ligands reveal orthosteric and allosteric mechanisms of receptor inhibition” (Communications Biology, 2020)
“And” between values parts separate entries of the source, which are not always exact repeats. Equal values may be shown once.

Experiments:
neutrophils = assay: Immunohistochemistry, neutrophil elastase-positive (NE+ve) neutrophils in rat paw; assay type: in vivo; settings: for NE +ve cells (% max): 2f-induced rat paw oedema, individual animals (Figure 5h); for decrease of NE+ve cells by 2f-LIGRLO-NH2: pre-treatment, 30 min
Experimental: (§1) Tissues were then embedded with Optimal Cutting Temperature compound (OCT, Sakura Finetek, USA) and stored at −80 °C before making cryo-sections for histological analysis. Frozen sections (5 µm) were made using a cryostat-microtome (Leica Biosystems, Germany). […] Slides were then dehydrated and mounted in DPX mountant (Sigma-Aldrich, USA). For immunohistochemistry, slides were briefly rinsed with PBS to remove OCT. Except for tryptase staining, antigen retrieval was performed by incubating slides in citrate buffer (0.01 M, pH 6) at 95 °C for 20 min. They were then cooled down briefly and incubated with blocking medium (PBS, 0.1% Triton X-100, 10% horse serum) for 1 h at room temperature in a humidity chamber. Samples were incubated with primary antibody medium (PBS, 0.1% Triton X-100, 4% horse serum; 1:100 primary antibody including – histamine, neutrophil elastase or ED1 antibodies) overnight at 4 °C. The next day, samples were washed with PBS and incubated with the secondary antibody medium (PBS, 0.1% Triton X-100, 4% horse serum, detection antibody 1:200) for 2 h at room temperature. For tryptase staining, slides were incubated with primary antibody medium (as above with tryptase antibody at 1:100 dilution) for 4 h, then the secondary antibody medium for 2 h. Finally, slides were dried, counterstained with DAPI (Invitrogen, Australia), and sealed with clear nail polish. Primary antibodies for tryptase (AA1, ab2378, Abcam, Australia), histamine (H7403, Sigma-Aldrich, USA), neutrophil elastase (ab21595, Abcam, Australia) and ED1 (ab31630, Abcam, Australia) were purchased from commercial sources. Secondary detection antibody was purchased from Abcam, Australia.

mast cells [1] = assay: Mast cell staining (toluidine blue), activated/degranulated mast cells in rat paw; assay type: in vivo; design: Active mast cells (%): concentration or dose not given beside the values; settings: for Active mast cells (%): 2f-induced rat paw oedema, individual animals (Figure 5b); for percentage activated/degranulated mast cells in paw induced by 2f-LIGRLO-NH2: pre-treatment, 30 min
Experimental: as §1

[2] = molecular target: T1, beta-tryptase (uniprot P20231) (Homo sapiens, UniProt P20231); assay: Tryptase enzyme activity assay; assay type: biochemical; settings: 10 µM, n=1
T1 construct: made in house; host or cells: Pichia pastoris
T1 sequence (P20231 31-275): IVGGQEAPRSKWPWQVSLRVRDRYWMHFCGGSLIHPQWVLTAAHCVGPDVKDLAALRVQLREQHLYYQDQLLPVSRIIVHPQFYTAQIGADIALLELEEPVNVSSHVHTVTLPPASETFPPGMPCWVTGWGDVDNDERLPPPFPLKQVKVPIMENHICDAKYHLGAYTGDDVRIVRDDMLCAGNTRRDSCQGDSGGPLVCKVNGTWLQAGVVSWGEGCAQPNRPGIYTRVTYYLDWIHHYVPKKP
Experimental: Tryptase Enzyme Activity Assay. The tryptase assay was carried out using beta-tryptase (uniprot P20231) produced in Pichia pastoris and using Tos-Gly-Pro-Lys-pNA as substrate (25 mM stock in ethanol) in 100 mM Tris pH 8.0, 100 mM NaCl, 10% glycerol, 0.5 mg mL-1 BSA, 0.1% DDM. Substrate (250 µM) was pre-incubated with test compound (10 µM) in assay buffer (200 ul) in clear bottom 96 well Greiner plates at room temperature. The re action was started by the addition of tryptase to a final concentration of 4.7 nM. Co nversion was recorded in a plate reader by monitoring the increase of absorption at λ = 405 nm over time. Activity was determined by linear fit of initial rate.

mast cells [3] = assay: Immunohistochemistry, tryptase-positive (AA1+ve) intact mast cells in rat paw; assay type: in vivo; settings: for AA +ve cells (% max): 2f-induced rat paw oedema, individual animals (Figure 5c); for decrease of tryptase-positive mast cells by 2f-LIGRLO-NH2: pre-treatment, 30 min
Experimental: as §1

hPAR2 = molecular target: T2, hPAR2 (Homo sapiens, UniProt P55085); assay: Schild and allosteric model analysis of Ca^2+ mobilisation in CHO-hPAR2 cells (2f-LIGRL-NH2 or trypsin); assay type: cell-based; settings: for linear Schild regression slope: Figure R1; for logα / logβ: operational model of allosterism
T2 sequence (P55085 26-397): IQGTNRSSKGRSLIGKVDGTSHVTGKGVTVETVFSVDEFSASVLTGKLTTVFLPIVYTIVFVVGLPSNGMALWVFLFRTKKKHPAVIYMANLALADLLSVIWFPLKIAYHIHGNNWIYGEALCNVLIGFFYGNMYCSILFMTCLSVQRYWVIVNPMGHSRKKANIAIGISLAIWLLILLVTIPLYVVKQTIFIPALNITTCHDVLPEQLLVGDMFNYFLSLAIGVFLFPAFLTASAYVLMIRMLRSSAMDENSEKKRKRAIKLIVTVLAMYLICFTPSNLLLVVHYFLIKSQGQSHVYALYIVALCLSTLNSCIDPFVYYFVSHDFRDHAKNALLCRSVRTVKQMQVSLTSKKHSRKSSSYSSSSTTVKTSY
Experimental: Cells were loaded with Fluo-8 NW calcium dye (AAT Bioquest) for 30 min at 37 °C before compounds in Hank’s balanced salt solution (HBSS, ThermoFisher Scientific) with 20 mM HEPES (ThermoFisher Scientific), 0.1% bovine serum albumin (BSA, Sigma) and 0.5% DMSO were added and simultaneously evaluated for changes in intracellular [Ca^2+] using FLIPR TETRA (Molecular Devices) to detect agonism. For each concentration, the difference between the maximum peak Ca^2+ response and baseline response is reported. […] Antagonism experiments were also carried out on 1321N1-PAR2[WT], 1321N1-PAR2[F154A], and 1321N1-PAR2[G157C] as described. Experiments with trypsin in 1321N1-hPAR2 cells were performed in the presence of 1 µM Vorapaxar (Chemtronica) to remove any interference of PAR1 activity. […] Antagonism experiments for CHO-hPAR2 and HT-29 cells were performed in 96-well plates at 30,000 cells/well. Cells were loaded with Fluo-3 AM calcium dye (Sigma-Aldrich) for 60 min at 37 °C in HBSS with 1% FBS, 0.2% pluronic acid, 20 mM HEPES and 2.5 mM probenecid prior to the addition of antagonist. The antagonist was pre-incubated for 60 min at 37 °C followed by the addition of bovine trypsin (30 nM) at EC80. Intracellular [Ca^2+] flux was measured using FLIPR TETRA (Molecular Devices) and the difference between the maximum peak Ca^2+ response and baseline response is reported.
Binding data were analysed using the One site – Fit Ki model in GraphPad Prism 8 (GraphPad Software) to determine binding affinity. Pharmacology in vitro potency data was analysed with a 4-parameter logistic fit using the equation y = Bottom + (Top − Bottom)/[…] where y is the response, x is the 10-logarithm of the drug concentration, Bottom is no response and Top is full response in GraphPad Prism 8 or Genedata Screener (Genedata). pEC50 and pIC50 data are presented as mean ± standard error of the mean (s.e.m.) derived from the number of independent experiments stated. Schild slope analysis was calculated using Graphpad Prism 8 Gaddum/Schild EC50 global fitting (shared model parameters between all data sets) competitive model. […] Schild slope quantifies the shifts in agonist response in the presence of antagonist, a Schild slope of 1 indicates the antagonist is competitive and extra-sum-of-squares F-test (p < 0.05) was used to compare the calculated Schild slope against a hypothetical Schild slope of 1. […] The relative activity was calculated using (EmaxEC50’)/(Emax’EC50) with the Hill slope help constant at 1. EC50’ and Emax’ denote the EC50 and Emax in the absence of allosteric modulator, while EC50 and Emax denote those measured in the presence of allosteric modulator. When the Hill slope = 1, the relative activity plot approaches an asymptote corresponding to the estimate of the γ value.

[4] = against 2f-LIGRL-NH2, Gaddum/Schild EC50 global fitting, CHO-hPAR2 cells
[5] = against trypsin, Gaddum/Schild EC50 global fitting, CHO-hPAR2 cells
[6] = 2f-LIGRL-NH2, Ca^2+ mobilisation

| Structure (SMILES) | NE +ve cells (% max) (neutrophils) | decrease of NE+ve cells by 2f-LIGRLO-NH2 (neutrophils) | Active mast cells (%) (mast cells [1]) | percentage activated/degranulated mast cells in paw induced by 2f-LIGRLO-NH2 (mast cells [1]) | inhibition of tryptase activity [2] | AA +ve cells (% max) (mast cells [3]) | decrease of tryptase-positive mast cells by 2f-LIGRLO-NH2 (mast cells [3]) | linear Schild regression slope (hPAR2; 2f-LIGRL-NH2, CHO-hPAR2 cells) | Schild slope (hPAR2; [4]) | Schild slope (hPAR2; [5]) | linear Schild regression slope (hPAR2; trypsin, CHO-hPAR2 cells) | γ value estimated from relative activity (hPAR2; 2f-LIGRL-NH2) | logα (hPAR2; [6]) | logβ (hPAR2; [6]) | logα (hPAR2; trypsin, Ca^2+ mobilisation) | logβ (hPAR2; trypsin, Ca^2+ mobilisation) | γ value estimated from relative activity (hPAR2; trypsin) |
| --- | --- | --- | --- | --- | --- | --- | --- | --- | --- | --- | --- | --- | --- | --- | --- | --- | --- |
| CCCc1cc(F)ccc1C(O)c1ncc[nH]1 (stereo not shown) [AZ8838] | 83.5679 % max and 62.4433 % max and 139.912 % max and 107.932 % max and 66.1651 % max | partially inhibited | 57.5% and 42.6997% and 37.7451% and 42.5373% and 50% | inhibited | no | 70.0073 % max and 71.1692 % max and 108.061 % max and 60.4212 % max and 59.2593 % max | partly blocked | 1.0 | 1.1 | 0.9 | 0.8 |  |  |  |  |  |  |
| C[C@@H](C1CCCCC1)n1c(-c2cc3c(cc2Br)OCO3)nc2cc(C(=O)Nc3ccc(C#N)cc3)ccc21 [AZ3451] | 135.782 % max and 55.9949 % max and 85.0488 % max and 57.3155 % max | partially inhibited | 40% and 57.0833% and 59.9284% and 37.5635% and 18.0263% | inhibited | no | 91.7692 % max and 45.8846 % max and 58.1835 % max and 66.6982 % max | partly blocked | 0.4 | 0.4 | 0.3 | 0.2 | 0.002 | −1.98 ± 0.11 | −0.28 ± 0.07 | −1.19 ± 0.07 | −0.66 ± 0.08 | 0.09 |
